# Tested on: isolated pancreatic islets
# Experiment: Apoptosis by measurement of DNA fragments (Cell Death Detection ELISA) in isolated islets
# Assay type: in vivo, rat
# Details: islets of ZDF rats, 10 mg/kg oral, overnight culture in RPMI; vehicle 43.1±9.2%, fa+ 19.9±6.2%
# Experimental: Rat pancreatic islets were prepared by collagenase digestion and density gradient purification. The enzyme collagenase type XI (Sigma Chemical, St. Louis, Mo.) was used for digestion of the pancreas. After an overnight fast, animals were deeply anesthetized and killed. Then, the pancreatic duct was cannulated, and 20 ml of the digestion solution at 37° C. (collagenase 30 mg/ml dissolved in 20 ml Hanks' balanced salt solution [HBSS]) (Sigma Chemical, St. Louis, Mo.) was slowly injected to distend the tissue. After distension, the pancreas was placed into a 20-ml glass beaker containing 5 ml of the digestion solution at 37° C. that was set into a shaking water bath at 37° C. for 8 minutes. After centrifugation at 633 g for 1 min at 4° C., the supernatant was removed and the islets were washed three times with HBSS by centrifugation at 633 g for 1 min at 4° C. For the purification procedure, the islets were resuspended in 4 ml of 80% Histopaque 1.077 (Sigma) and 4 ml HBSS. […] The apoptosis of islet cells was assessed by the Cell Death Detection enzyme-linked immunosorbent assay (ELISA) plus Kit from Roche, according to the procedures recommended by the manufacturer and applied to rat islet experiment. […] At the end of the 5-min incubation, absorbance of samples was read spectrophotometrically at 405 nm. The results were expressed as a percent of internal standard (nucleosomal particles). […]
smiles,measurement,value
O=C(O)Cc1cccc(OCCCN(Cc2cccc(C(F)(F)F)c2Cl)CC(c2ccccc2)c2ccccc2)c1 [GW3965],"apoptosis, DNA fragments as percent of internal standard",34.0±7.5%

# — patent US8030335B2, “Use of liver X receptor agonists” (Laboratoires Fournier S.A., priority 2005, dated 2011)
